We go through two compounds from patent US11078188B2, “Dihydroquinoxaline bromodomain recognition protein inhibitor, preparation method and use thereof” (SHANGHAI INSTITUTE OF MATERIA MEDICA, CHINESE ACADEMY OF …, priority 2017, dated 2021).

Each structure is given as a SMILES string.

For one series, the target named is BRD4 (I) (Homo sapiens (Human), UniProt O60885). Description: Fluorescence anisotropy (FA) binding test on BRD4 (I). The note with it: BRD4 (I) 10 nM, fluorescent (+)-JQ1 substrate 5 nM, read-out: BRD4 (1) IC50.
For another series, the target named is CYP3A4 (Homo sapiens (Human), UniProt P08684). Description: Direct inhibition test (DI test), CYP 3A4. Particulars: human liver microsomes 0.2 mg/ml, first of two values a/b (two 3A4 probes midazolam, testosterone; assignment not given), read-out: Direct inhibition rate (%) 3A4, first value. Type of series: in vitro ADME. Background: Liver microsomes are a subcellular fraction often used to study metabolism.

A further series concerns the target CYP2D6 (Homo sapiens (Human), UniProt P10635). Briefly: Direct inhibition test (DI test), CYP 2D6. It counts as in vitro ADME. The note with it: human liver microsomes 0.2 mg/ml, read-out: Direct inhibition rate (%) 2D6. The method, then:
(§1) The system which was 100 μl of human liver microsomes (final concentration: 0.2 mg/ml) was used for direct inhibition incubation. The system contained NADPH (final concentration: 1 mM), 10 μl compound, positive inhibitor cocktail (ketoconazole, 10 μl, quinidine 10 μl, sulfaphenazole 100 μl, naphthoflavone 10 μl, tranylcypromine 1000 μl), negative control 10 μl DMSO and mixed probe substrate (midazolam 10 μl, testosterone 100 μl, dextromethorphan 10 μl, diclofenac 20 μl, phenacetin 100 μl, mephenytoin 100 μl). The reaction was stopped after the system was incubated for 20 min. The relative activity of the enzyme was calculated by measuring the relative amount of production of the metabolite.

Another series addresses 2C9 (Homo sapiens (Human), UniProt P11712). Briefly: Direct inhibition test (DI test), CYP 2C9. It counts as in vitro ADME. The note with it: human liver microsomes 0.2 mg/ml, 20 min. The method, then: as §1
Another series addresses 1A2 (Homo sapiens (Human), UniProt P05177). Description: Direct inhibition test (DI test), CYP 1A2. It counts as in vitro ADME. The note with it: human liver microsomes 0.2 mg/ml, 20 min. Here is the method: as §1
The target in the next series is 2C19 (Homo sapiens (Human), UniProt P33261). Description: Direct inhibition test (DI test), CYP 2C19. Type of series: in vitro ADME. The note with it: human liver microsomes 0.2 mg/ml, 20 min. Here is the method:
as §1

Chain of 2C19 (P33261 whole entry): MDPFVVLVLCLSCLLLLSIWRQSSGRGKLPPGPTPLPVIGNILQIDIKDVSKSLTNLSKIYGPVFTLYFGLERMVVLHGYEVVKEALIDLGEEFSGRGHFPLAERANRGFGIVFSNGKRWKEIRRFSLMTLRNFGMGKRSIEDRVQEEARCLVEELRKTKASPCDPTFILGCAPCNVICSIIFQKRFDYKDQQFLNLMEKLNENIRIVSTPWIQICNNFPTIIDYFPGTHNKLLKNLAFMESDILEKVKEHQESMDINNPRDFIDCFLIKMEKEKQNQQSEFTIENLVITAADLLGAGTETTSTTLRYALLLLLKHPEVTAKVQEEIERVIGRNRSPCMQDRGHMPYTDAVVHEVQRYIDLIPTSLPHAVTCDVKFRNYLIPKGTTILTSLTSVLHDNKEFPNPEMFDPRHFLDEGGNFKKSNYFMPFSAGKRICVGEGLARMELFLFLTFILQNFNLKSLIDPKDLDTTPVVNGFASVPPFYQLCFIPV
Chain of 1A2 (P05177 whole entry): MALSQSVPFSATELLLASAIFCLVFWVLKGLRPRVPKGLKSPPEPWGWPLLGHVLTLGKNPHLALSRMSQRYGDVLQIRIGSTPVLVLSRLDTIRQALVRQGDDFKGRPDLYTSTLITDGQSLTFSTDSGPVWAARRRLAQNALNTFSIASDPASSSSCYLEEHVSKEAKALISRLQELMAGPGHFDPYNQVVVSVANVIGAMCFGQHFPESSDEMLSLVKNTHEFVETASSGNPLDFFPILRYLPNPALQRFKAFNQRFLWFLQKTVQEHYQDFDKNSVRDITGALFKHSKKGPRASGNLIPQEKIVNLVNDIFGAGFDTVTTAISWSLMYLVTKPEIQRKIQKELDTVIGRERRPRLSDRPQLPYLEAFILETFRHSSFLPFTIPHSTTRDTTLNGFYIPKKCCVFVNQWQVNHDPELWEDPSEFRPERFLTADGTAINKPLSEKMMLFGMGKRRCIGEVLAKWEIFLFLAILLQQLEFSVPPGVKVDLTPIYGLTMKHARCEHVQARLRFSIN
Chain of CYP2D6 (P10635 whole entry): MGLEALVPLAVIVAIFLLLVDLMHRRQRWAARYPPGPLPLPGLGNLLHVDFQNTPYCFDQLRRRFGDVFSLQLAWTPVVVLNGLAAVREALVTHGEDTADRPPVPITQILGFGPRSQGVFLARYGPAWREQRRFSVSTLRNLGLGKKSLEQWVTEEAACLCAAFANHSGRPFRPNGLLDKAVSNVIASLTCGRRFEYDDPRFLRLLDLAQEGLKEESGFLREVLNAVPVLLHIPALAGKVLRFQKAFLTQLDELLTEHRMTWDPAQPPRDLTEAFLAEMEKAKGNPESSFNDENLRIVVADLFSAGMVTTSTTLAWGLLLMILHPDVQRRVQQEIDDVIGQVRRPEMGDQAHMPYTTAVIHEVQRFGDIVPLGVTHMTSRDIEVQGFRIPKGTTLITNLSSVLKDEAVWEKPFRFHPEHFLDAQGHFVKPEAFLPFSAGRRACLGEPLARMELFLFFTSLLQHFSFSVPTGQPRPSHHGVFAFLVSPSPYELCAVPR
Chain of 2C9 (P11712 whole entry): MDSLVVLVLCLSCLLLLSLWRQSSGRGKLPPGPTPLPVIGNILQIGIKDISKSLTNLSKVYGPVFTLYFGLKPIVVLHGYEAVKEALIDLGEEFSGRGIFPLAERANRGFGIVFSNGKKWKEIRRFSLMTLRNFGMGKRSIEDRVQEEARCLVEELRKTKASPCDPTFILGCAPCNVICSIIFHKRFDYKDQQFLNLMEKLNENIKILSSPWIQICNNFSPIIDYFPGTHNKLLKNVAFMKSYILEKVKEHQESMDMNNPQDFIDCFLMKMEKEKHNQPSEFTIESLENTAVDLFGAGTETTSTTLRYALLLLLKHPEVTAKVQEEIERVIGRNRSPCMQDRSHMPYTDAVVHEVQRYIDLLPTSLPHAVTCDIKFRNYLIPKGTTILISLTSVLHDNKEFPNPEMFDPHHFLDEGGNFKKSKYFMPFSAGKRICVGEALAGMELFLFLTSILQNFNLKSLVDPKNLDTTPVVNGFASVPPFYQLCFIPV
Chain of CYP3A4 (P08684 whole entry): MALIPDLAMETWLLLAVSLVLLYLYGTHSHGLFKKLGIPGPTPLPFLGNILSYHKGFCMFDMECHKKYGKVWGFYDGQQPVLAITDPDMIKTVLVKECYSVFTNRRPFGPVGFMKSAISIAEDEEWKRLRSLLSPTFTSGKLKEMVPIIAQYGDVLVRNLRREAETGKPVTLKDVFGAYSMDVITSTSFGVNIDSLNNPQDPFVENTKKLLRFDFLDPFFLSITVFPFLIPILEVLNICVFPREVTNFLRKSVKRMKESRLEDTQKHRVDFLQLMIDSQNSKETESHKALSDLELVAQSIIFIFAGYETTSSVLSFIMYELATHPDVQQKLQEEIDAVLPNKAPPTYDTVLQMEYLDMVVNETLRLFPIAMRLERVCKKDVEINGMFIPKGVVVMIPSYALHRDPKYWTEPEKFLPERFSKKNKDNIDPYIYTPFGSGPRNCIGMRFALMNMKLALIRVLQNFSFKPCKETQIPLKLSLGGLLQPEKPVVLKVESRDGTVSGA

Turning to `Cc1ccc(-n2nc(C(=O)N3CCN(C)CC3)nc2-c2ccc3c(c2)N(C2CCCC2)[C@H](C)C(=O)N3C)cc1` [Example 6], the IC50 at BRD4 (I) amounted to 6.5 nM.

With `Cc1ccc(-n2nc(C(=O)N3C[C@@H](C)N[C@@H](C)C3)nc2-c2ccc3c(c2)N(C2CCCC2)[C@H](C)C(=O)N3C)cc1` [Example 12], the IC50 at BRD4 (I) was determined as 4.9 nM. Further, the figures for the inhibition at 20 min on CYP3A4 and on CYP2D6 were 23% and 4%, respectively. In addition, the “Direct inhibition rate (%) 2C9” value on 2C9 was 28%. Moreover, on 1A2, the “Direct inhibition rate (%) 1A2” value is reported as “no”. Besides, at 2C19, the “Direct inhibition rate (%) 2C19” value was determined as 12%.

As a reminder, the IC50 is the midpoint of a concentration-inhibition curve. Broadly, the inhibition is the drop in the measured response relative to a control, in per cent.
